As usually defined, the IC50 is the point on the concentration scale where inhibition reaches its midpoint.

The source of these data is patent US10023579B2, “Pyrrolopyrimidine compounds, use as inhibitors of the kinase LRRK2, and methods for preparation thereof” (Southern Research Institute, priority 2015, dated 2018).

Experiment [1] has as its target T1, WT-LRRK2 (recombinant GST-LRRK2 delta970) (Homo sapiens, UniProt Q5S007).
T1 construct: Recombinant GST-LRRK2 (delta970); GST (N); host or cells: baculovirus-infected Sf9 insect cells
Put plainly: LRRK2 kinase assay, wild type (32P radiometric, peptide substrate). It counts as biochemical. The following applies: WT-LRRK2 30 nM, ATP ~92 μM (Km), 30 min at 30° C. As for the experimental part: (§1) Compounds were assessed for inhibition of LRRK2 inhibition using the following procedure. Recombinant GST-LRRK2 (delta970) purified from baculovirus infected insect cells (SF9), at least 90% pure and either wild-type sequence or bearing the pathogenic G2019S mutation, was combined into a kinase buffer at 30 nM concentration. Kinase buffer consists of 50 mM Tris HCl pH 7.4, 1 mM EDTA, and 50 μM peptide substrate (amino acid sequence […]). Experimental compounds or control (no compound) were added at desired concentrations in DMSO and water, where final concentration of DMSO in kinase reactions was 0.1% for all drug concentrations. […] Reactions were incubated at 1400 RPM at 30° C. for 30 min. and then spotted in triplicate directly onto a slot-blot apparatus fitted with phospho-cellulose paper and allowed to dry. Each slot was then washed with 10 mM phosphoric acid buffer until beta-radiation could not be detected in eluted wash buffer, usually ˜1 mL per slot. Paper within each slot were excised and radiation measured by liquid scintillation.

The target in experiment [2] is T2, G2019S-LRRK2 (recombinant GST-LRRK2 delta970) (Homo sapiens, UniProt Q5S007, G2019S).
T2 construct: Recombinant GST-LRRK2 (delta970); GST (N); host or cells: baculovirus-infected Sf9 insect cells
Put plainly: LRRK2 kinase assay, G2019S mutant (32P radiometric, peptide substrate). The settings on record: G2019S-LRRK2 30 nM, ATP ~52 μM (Km), 30 min at 30° C. Format: biochemical. As for the experimental part:
as §1

Several values for one entry are separate records, joined by “and”; a condition that tells them apart may be missing. Identical values can stand only once.

T1 sequence (Q5S007 970-2527 limits assumed): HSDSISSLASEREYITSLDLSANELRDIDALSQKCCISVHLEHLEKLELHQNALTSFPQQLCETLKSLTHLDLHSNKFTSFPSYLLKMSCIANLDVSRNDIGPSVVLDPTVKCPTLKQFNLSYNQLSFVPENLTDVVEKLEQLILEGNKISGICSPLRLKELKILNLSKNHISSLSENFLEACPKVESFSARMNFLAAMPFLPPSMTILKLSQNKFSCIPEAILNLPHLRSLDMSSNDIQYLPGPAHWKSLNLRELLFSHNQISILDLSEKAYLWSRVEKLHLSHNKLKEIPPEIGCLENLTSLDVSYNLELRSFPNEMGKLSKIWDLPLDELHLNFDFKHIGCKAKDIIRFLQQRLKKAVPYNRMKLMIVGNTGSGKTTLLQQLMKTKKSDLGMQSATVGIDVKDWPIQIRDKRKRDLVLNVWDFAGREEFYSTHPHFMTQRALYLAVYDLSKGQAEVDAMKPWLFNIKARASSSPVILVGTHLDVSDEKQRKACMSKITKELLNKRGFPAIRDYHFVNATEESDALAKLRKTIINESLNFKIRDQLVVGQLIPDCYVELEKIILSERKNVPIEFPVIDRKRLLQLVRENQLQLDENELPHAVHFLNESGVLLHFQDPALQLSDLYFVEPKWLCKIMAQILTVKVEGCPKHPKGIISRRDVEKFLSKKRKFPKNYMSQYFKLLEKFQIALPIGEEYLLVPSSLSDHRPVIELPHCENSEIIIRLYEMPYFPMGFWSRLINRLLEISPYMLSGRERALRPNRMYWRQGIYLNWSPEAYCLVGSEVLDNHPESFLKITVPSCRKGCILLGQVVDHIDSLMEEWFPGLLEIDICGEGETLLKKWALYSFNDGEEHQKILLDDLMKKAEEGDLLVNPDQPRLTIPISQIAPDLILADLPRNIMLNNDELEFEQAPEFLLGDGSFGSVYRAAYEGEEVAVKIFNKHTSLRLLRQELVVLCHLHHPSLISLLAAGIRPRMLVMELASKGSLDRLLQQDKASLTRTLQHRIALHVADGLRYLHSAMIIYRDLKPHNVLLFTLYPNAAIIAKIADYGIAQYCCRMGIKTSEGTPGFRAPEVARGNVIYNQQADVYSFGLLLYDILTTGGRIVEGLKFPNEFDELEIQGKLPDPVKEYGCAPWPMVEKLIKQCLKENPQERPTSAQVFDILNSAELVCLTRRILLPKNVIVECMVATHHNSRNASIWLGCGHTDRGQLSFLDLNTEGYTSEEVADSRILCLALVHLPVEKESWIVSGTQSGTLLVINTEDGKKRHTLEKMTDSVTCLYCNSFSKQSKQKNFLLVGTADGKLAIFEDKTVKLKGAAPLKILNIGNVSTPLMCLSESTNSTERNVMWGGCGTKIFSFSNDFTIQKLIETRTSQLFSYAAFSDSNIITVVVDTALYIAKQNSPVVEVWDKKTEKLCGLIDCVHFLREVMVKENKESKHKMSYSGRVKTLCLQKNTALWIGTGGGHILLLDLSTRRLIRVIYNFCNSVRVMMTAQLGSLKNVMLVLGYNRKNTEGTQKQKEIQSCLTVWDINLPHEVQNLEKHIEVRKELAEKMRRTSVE
T2 sequence (Q5S007 970-2527 G2019S limits assumed): as the sequence (Q5S007 970-2527 limits assumed) above, with G1050S counted along it

Regarding `C[C@H](Nc1nc(Nc2cn(C3CCOC3)nn2)nc2[nH]ccc12)C1CC1` (stereo in doubt) [Compound 50, N4-((S)-1-cyclopropylethyl)-N2-(1-((S)-tetrahydrofuran-3-yl)-1H-1,2,3-triazol-4-yl)-7H-pyrrolo[2,3-d]pyrimidine-2,4-diamine], the IC50 in experiment [1] came out at 0.04 µM; in experiment [2] it was 0.061 µM. In the same order, the values of `Cn1cc(Nc2nc(NC3CCC3)c3cc[nH]c3n2)cn1` [Compound 7, N4-cyclobutyl-N2-(1-methyl-1H-pyrazol-4-yl)-7H-pyrrolo[2,3-d]pyrimidine-2,4-diamine] are 0.008 µM and 0.019 µM. In the same order, the values of `CC(C)n1cc(Nc2nc(NC3CCC3)c3cc[nH]c3n2)cn1` [Compound 8, N4-cyclobutyl-N2-(1-isopropyl-1H-pyrazol-4-yl)-7H-pyrrolo[2,3-d]pyrimidine-2,4-diamine] are 0.005 µM and 0.009 µM. On the same counts, the results for `C[C@H](Nc1nc(Nc2cnn(C)c2)nc2[nH]cnc12)C1CC1` [Compound 9, (S)-N6-(1-cyclopropylethyl)-N2-(1-methyl-1H-pyrazol-4-yl)-9H-purine-2,6-diamine] are 0.038 µM and 0.1 µM. For `Cc1cc(Nc2nc(N[C@@H](C)C3CC3)c3nc[nH]c3n2)n[nH]1` [Compound 10, (S)-N6-(1-cyclopropylethyl)-N2-(5-methyl-1H-pyrazol-3-yl)-9H-purine-2,6-diamine], the IC50 in experiment [1] turned out to be 0.019 µM; in experiment [2] it was 0.048 µM. In the same order, the values of `CC(C)n1cc(Nc2nc(N[C@@H](C)C3CC3)c3nc[nH]c3n2)cn1` [Compound 12, (S)-N6-(1-cyclopropylethyl)-N2-(1-isopropyl-1H-pyrazol-4-yl)-9H-purine-2,6-diamine] are 0.01 µM and 0.022 µM.

With `CC(C)n1cc(Nc2nc(NC3CCC3)c3nc[nH]c3n2)cn1` [Compound 13, N6-cyclobutyl-N2-(1-isopropyl-1H-pyrazol-4-yl)-9H-purine-2,6-diamine], the IC50 was found to be 0.007 µM in experiment [1] and 0.015 µM in experiment [2].

In the case of `Cc1c(Nc2nc(N[C@H]3CCc4ccccc43)c3cc[nH]c3n2)cnn1C(C)C(=O)N1CCN(C)CC1` (stereo partly drawn) [Compound 18, 2-(4-((4-(((S)-2,3-dihydro-1H-inden-1-yl)amino)-7H-pyrrolo[2,3-d]pyrimidin-2-yl)amino)-5-methyl-1H-pyrazol-1-yl)-1-(4-methylpiperazin-1-yl)propan-1-one], the IC50 in experiment [1] was 0.037 µM; in experiment [2], 0.049 µM. With `CC(C)n1cc(Nc2nc(N[C@@H](C)c3ccccc3)c3cc[nH]c3n2)cn1` [Compound 22, (S)-N2-(1-isopropyl-1H-pyrazol-4-yl)-N4-(1-phenylethyl)-7H-pyrrolo[2,3-d]pyrimidine-2,4-diamine], the IC50 in experiment [1] worked out at 0.037 µM; in experiment [2], 0.056 µM.

On to `Cc1c(Nc2nc(N[C@@H](C)c3ccccc3)c3cc[nH]c3n2)cnn1C(C)C` [Compound 24, (S)-N2-(1-isopropyl-5-methyl-1H-pyrazol-phenylethyl)-7H-pyrrolo[2,3-d]pyrimidine-2,4-diamine], for which the IC50 came to 0.055 µM in experiment [1] and 0.063 µM in experiment [2].

Consider `Cc1c(Nc2nc(N[C@@H](C)C3CCCCC3)c3cc[nH]c3n2)cnn1C(C)C` [Compound 25, (S)-N4-(1-cyclohexylethyl)-N2-(1-isopropyl-5-methyl-1H-pyrazol-4-yl)-7H-pyrrolo[2,3-d]pyrimidine-2,4-diamine], for which the IC50 in experiment [1] is 0.042 µM; in experiment [2] it was 0.043 µM. In the same order, the values of `C[C@H](Nc1nc(Nc2cnn(C)c2)nc2[nH]ccc12)C1CC1` [Compound 28, (S)-N4-(1-cyclopropylethyl)-N2-(1-methyl-1H-pyrazol-4-yl)-7H-pyrrolo[2,3-d]pyrimidine-2,4-diamine] are 0.02 µM and 0.03 µM.

Take `CCn1cc(Nc2nc(N[C@@H](C)C3CC3)c3cc[nH]c3n2)cn1` [Compound 29]: the IC50 turned out to be 0.012 µM in experiment [1] and 0.017 µM in experiment [2].

As for `C[C@H](Nc1nc(Nc2cnn(C3CCN(C)CC3)c2)nc2[nH]ccc12)C1CC1` [Compound 31, (S)-N4-(1-cyclopropylethyl)-N2-(1-(1-methylpiperidin-4-yl)-1H-pyrazol-4-yl)-7H-pyrrolo[2,3-d]pyrimidine-2,4-diamine], the IC50 was 0.02 µM in experiment [1] and 0.023 µM in experiment [2].

Consider `COCCn1cc(Nc2nc(N[C@@H](C)C3CC3)c3cc[nH]c3n2)cn1` [Compound 32, (S)-N4-(1-cyclopropylethyl)-N2-(1-(2-methoxyethyl)-1H-pyrazol-4-yl)-7H-pyrrolo[2,3-d]pyrimidine-2,4-diamine], for which the IC50 in experiment [1] and in experiment [2] was 0.011 µM each time. As for `COCC(C)n1cc(Nc2nc(N[C@@H](C)C3CC3)c3cc[nH]c3n2)cn1` (stereo partly drawn) [Compound 34, N4-((S)-1-cyclopropylethyl)-N2-(1-(1-methoxypropan-2-yl)-1H-pyrazol-4-yl)-7H-pyrrolo[2,3-d]pyrimidine-2,4-diamine], the IC50 turned out to be 0.011 µM in experiment [1] and 0.015 µM in experiment [2].

For `CC(C)n1cc(Nc2nc(N[C@@H](C)c3ccccn3)c3cc[nH]c3n2)cn1` [Compound 35, (S)-N2-(1-isopropyl-1H-pyrazol-4-yl)-N4-(1-(pyridin-2-yl)ethyl)-7H-pyrrolo[2,3-d]pyrimidine-2,4-diamine], the IC50 in experiment [1] turned out to be 0.066 µM; in experiment [2] it was 0.097 µM. In the same order, the values of `Cc1cc(Nc2nc(N[C@@H](C)C3CC3)c3cc[nH]c3n2)n[nH]1` [Compound 36, (S)-N4-(1-cyclopropylethyl)-N2-(5-methyl-1H-pyrazol-3-yl)-7H-pyrrolo[2,3-d]pyrimidine-2,4-diamine] are 0.038 µM and 0.044 µM.

With `COCCn1cc(Nc2nc(N[C@@H](C)C3CC3)c3cc[nH]c3n2)nn1` [Compound 39, (S)-N4-(1-cyclopropylethyl)-N2-(1-(2-methoxyethyl)-1H-1,2,3-triazol-4-yl)-7H-pyrrolo[2,3-d]pyrimidine-2,4-diamine], in experiment [2], the IC50 was 0.058 µM and 0.113 µM and 0.088 µM.

`C[C@H](Nc1nc(Nc2cnn(CCN(C)C)c2)nc2[nH]ccc12)C1CC1` [Compound 41, (S)-N4-(1-cyclopropylethyl)-N2-(1-(2-(dimethylamino)ethyl)-1H-pyrazol-4-yl)-7H-pyrrolo[2,3-d]pyrimidine-2,4-diamine]: the IC50 in experiment [1] was 0.05 µM; in experiment [2], 0.065 µM. Take `CC(C)n1cc(Nc2nc(N[C@@H](C)C3CCC3)c3cc[nH]c3n2)cn1` [Compound 42, (S)-N4-(1-cyclobutylethyl)-N2-(1-isopropyl-1H-pyrazol-4-yl)-7H-pyrrolo[2,3-d]pyrimidine-2,4-diamine]: the IC50 in experiment [1] came to 0.067 µM; in experiment [2], 0.078 µM. In the same order, the values of `CNC(=O)C(C)n1cc(Nc2nc(N[C@@H](C)C3CC3)c3cc[nH]c3n2)c(Cl)n1` (stereo partly drawn) [Compound 46, 2-(3-chloro-4-((4-(((S)-1-cyclopropylethyl)amino)-7H-pyrrolo[2,3-d]pyrimidin-2-yl)amino)-1H-pyrazol-1-yl)-N-methylpropanamide] are 0.012 µM and 0.017 µM. On the same counts, the results for `CC(C)n1cc(Nc2nc(N(C)[C@@H](C)C3CC3)c3cc[nH]c3n2)cn1` [Compound 48, (S)-N4-(1-cyclopropylethyl)-N2-(1-isopropyl-1H-pyrazol-4-yl)-N4-methyl-7H-pyrrolo[2,3-d]pyrimidine-2,4-diamine] are 0.019 µM and 0.044 µM. For the compound `COCC(C)n1cc(Nc2nc(N(C)[C@@H](C)C3CC3)c3cc[nH]c3n2)cn1` (stereo partly drawn) [Compound 49, N4-((S)-1-cyclopropylethyl)-N2-(1-(1-methoxypropan-2-yl)-1H-pyrazol-4-yl)-N4-methyl-7H-pyrrolo[2,3-d]pyrimidine-2,4-diamine], the IC50 amounted to 0.027 µM in experiment [1] and 0.069 µM in experiment [2].

With `C[C@H](Nc1nc(Nc2cn([C@H]3CCOC3)nn2)nc2[nH]ccc12)C1CC1` [Compound 51, N4-((S)-1-cyclopropylethyl)-N2-(1-((S)-tetrahydrofuran-3-yl)-1H-1,2,3-triazol-4-yl)-7H-pyrrolo[2,3-d]pyrimidine-2,4-diamine], the values for the IC50 in experiment [1] and in experiment [2] were 0.066 µM and 0.102 µM, respectively. In the same order, the values of `CC(O)Cn1cc(Nc2nc(N[C@@H](C)C3CC3)c3cc[nH]c3n2)nn1` (stereo partly drawn) [Compound 54, 1-(4-((4-(((S)-1-cyclopropylethyl)amino)-7H-pyrrolo[2,3-d]pyrimidin-2-yl)amino)-1H-1,2,3-triazol-1-yl)propan-2-ol] are 0.021 µM and 0.027 µM. For `C[C@H](Nc1nc(Nc2cn([C@H](C)CO)nn2)nc2[nH]ccc12)C1CC1` [Compound 55, (R)-2-(4-((4-(((S)-1-cyclopropylethyl)amino)-7H-pyrrolo[2,3-d]pyrimidin-2-yl)amino)-1H-1,2,3-triazol-1-yl)propan-1-ol], the IC50 in experiment [1] is 0.009 µM and 0.019 µM; in experiment [2], 0.013 µM and 0.032 µM.

Take `C[C@H](Nc1nc(Nc2cn(C3COC3)nn2)nc2[nH]ccc12)C1CC1` [Compound 56, (S)-N4-(1-cyclopropylethyl)-N2-(1-(oxetan-3-yl)-1H-1,2,3-triazol-4-yl)-7H-pyrrolo[2,3-d]pyrimidine-2,4-diamine]: the values for the concentration for half-maximal inhibition (IC50) in experiment [1] and in experiment [2] were 0.073 µM and 0.115 µM, respectively.
